From US5616615A, “Enaminone esters” (priority 1995, dated 1997) come the findings set out here.

SMILES strings stand for the structures. Like-named read-outs stand apart in the source and are kept apart here.

The subject of data set [1] is Maximal electroshock seizures. Kind of data set: MES maximal electroshock seizure test, mice ip. As to conditions: for responders at 100 mg/kg / responders at 300 mg/kg / responders at 3 mg/kg / responders at 10 mg/kg: Mus musculus, ip; for anti-MES protecting ability: Phase I. Format: in vivo. The method, then:
Three tests were performed:
1. MES--Electroshock Seizure Test
(§1) Maximal electroshock seizures are elicited with a 60-cycle alternating current of 50 mA intensity (5-7 times that necessary to elicit minimal electroshock seizures) delivered via corneal electrodes for 0.2 seconds. A drop of 0.9% saline is instilled in the eye prior to application of the electrodes in order to […].

Data set [2] concerns Subcutaneous Pentylenetetrazol seizure. Kind of data set: sc Met subcutaneous pentylenetetrazol (Metrazol) seizure test, mice. The following applies: for responders at 100 mg/kg / responders at 300 mg/kg: Mus musculus, sc. It counts as in vivo.
Data set [3] can be described thus: in vivo. The procedure: The first phase of the ADD Program involved performing tests on male Carworth Farms #1 mice. […] Three tests were performed:
In the second phase of the ADD program protocol, estimates of anticonvulsant activity and neurotoxicity are quantified. The median effective dose (ED50) in the MES, sc Met, and rotorod test is determined. In the case of a compound with apparent activity in only one anticonvulsant test, testing is carried out in the other up to, and in some cases beyond, doses which produce neurological deficit. Compounds which fail to produce minimal neurological deficit are tested whenever possible to doses ten times their lowest anticonvulsant ED50. […] The rotorod ED50 is determined at the time of the peak neurologic deficit.

In data set [4] the test system is Maximal electroshock seizures. Kind of data set: Phase VI oral MES test, rats. Format: in vivo. The following applies: for responders at 50 mg/kg: Rattus norvegicus.
Description: as §1
(§2) This oral screen is designated as phase VI.

The nature of data set [5]: in vivo. As to conditions: rat, po, 50 mg/kg.
Description: as §2

Another data set relates to seizures. Kind of data set: Anticonvulsant evaluation (ASP phase I / overall). Format: in vivo, mice. As to conditions: Mus musculus, ip, read-out: ASP Classification. A digest of the protocol: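 Male Carworth Farms #1 mice; maximal electroshock seizures elicited by 60-cycle AC, 50 mA, 0.2 s via corneal electrodes after a drop of 0.9% saline in the eye. Animals observed for 30 minutes.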

The mark [6] stands for this setting: 0.5 h, 100 mg/kg, 30 min, read-out: MES, animals protected/tested (converted).
[7] abbreviates: 0.5 h, 300 mg/kg, 30 min, read-out: MES, animals protected/tested.
The mark [8] stands for this setting: 0.5 h, Phase II, 0.50 h, read-out: MES, animals protected/tested.
[9] abbreviates: 0.5 h, Phase II, 0.50 h, read-out: MES, animals protected/tested (converted).
Where [10] appears, read: 4 h, 100 mg/kg, 4 h, read-out: MES, animals protected/tested (converted).
The mark [11] stands for this setting: 4 h, 300 mg/kg, 4 h, read-out: MES, animals protected/tested.
Setting [12] is: 0.5 h, 100 mg/kg, 30 min, read-out: scMet, animals protected/tested (converted).
The mark [13] stands for this setting: 0.5 h, 300 mg/kg, 30 min, second trial, read-out: scMet, animals protected/tested (converted).
[14] abbreviates: 0.5 h, 300 mg/kg, 30 min, read-out: scMet, animals protected/tested (converted).
The mark [15] stands for this setting: 4 h, 100 mg/kg, 4 h, read-out: scMet, animals protected/tested (converted).
Setting [16] is: 4 h, 300 mg/kg, 4 h, read-out: scMet, animals protected/tested (converted).
The mark [17] stands for this setting: 0.5 h, oral, 50 mg/kg, 0.50 h, read-out: MES, animals protected/tested (converted).
[18] abbreviates: oral, 50 mg/kg, 0.25 h, read-out: MES, animals protected/tested (converted).
Setting [19] is: oral, 50 mg/kg, 1.00 h, read-out: MES, animals protected/tested (converted).
Where [20] appears, read: oral, 50 mg/kg, 2.00 h, read-out: MES, animals protected/tested (converted).
The mark [21] stands for this setting: oral, 50 mg/kg, 4.00 h, read-out: MES, animals protected/tested (converted).
Setting [22] is: 0.25 h, mice ip, 0.25 h, read-out: MES, animals protected/tested (converted).
Where [23] appears, read: 0.5 h, mice ip, 0.50 h, read-out: MES, animals protected/tested (converted).
[24] abbreviates: 1 h, mice ip, 1.00 h, read-out: MES, animals protected/tested (converted).
[25] abbreviates: 2 h, mice ip, 2.00 h, read-out: MES, animals protected/tested (converted).
[26] abbreviates: 4 h, mice ip, 4.00 h, read-out: MES, animals protected/tested (converted).
Setting [27] is: 0.5 h, read-out: MES, animals protected/tested.
Where [28] appears, read: 4 h, read-out: MES, animals protected/tested.
Setting [29] is: 4 h, read-out: scMet, animals protected/tested.

For `CCOC(=O)C1C(=O)C=C(Nc2ccc([N+](=O)[O-])cc2)CC1C` (centres unmarked) [Compound 127], the responders at 100 mg/kg in data set [1] (setting [6]) was 100%; in data set [1] (setting [10]) it was 0%; in data set [2] (setting [12]) it was 0%; in data set [2] (setting [15]), 0%. In addition, the responders at 300 mg/kg in data set [1] (setting [7]) is 100%; in data set [1] (setting [11]), 0%; in data set [2] (setting [13]), 50%; in data set [2] (setting [14]), 100%; in data set [2] (setting [16]) it was 0%. For the same compound, the responders at 3 mg/kg in data set [1] (setting [8]) was 0%. In data set [1] (setting [9]), the responders at 10 mg/kg was 0%. The “Tox (rotorod), animals toxic/tested” value in the data set “in vivo [3]” (mouse, in vivo, 3 mg/kg) was 0/4; in “in vivo [3]” (mouse, in vivo, 10 mg/kg), 0/4. In addition, the responders at 50 mg/kg in data set [4] (setting [17]) was 50%; in data set [4] (setting [18]) it was 25%; in data set [4] (setting [19]), 100%; in data set [4] (setting [20]) it was 50%; in data set [4] (setting [21]), 25%. In addition, the “Tox, animals toxic/tested” value in “in vivo [5]” is 0/4. In addition, in the data set with seizures (Phase I), the minimal effective dose was below 100 mg/kg.
On to `CCOC(=O)C1C(=O)C=C(Nc2ccc(Cl)cc2)CC1C` (centres unmarked) [Compound 122], for which the responders at 10 mg/kg in data set [1] (setting [22]) was 75%; in data set [1] (setting [9]), 25%; in data set [1] (setting [23]), 75%; in data set [1] (setting [24]) it was 100%; in data set [1] (setting [25]) it was 25%; in data set [1] (setting [26]), 25%. Further, the responders at 100 mg/kg in data set [1] (setting [6]) was 100%; in data set [1] (setting [10]) it was 0%; in data set [2] (setting [12]), 0%; in data set [2] (setting [15]), 0%. For the same compound, the responders at 300 mg/kg in data set [1] (setting [7]) is 100%; in data set [1] (setting [11]), 100%; in data set [2] (setting [13]), 50%; in data set [2] (setting [14]), 100%; in data set [2] (setting [16]) it was 0%. Moreover, the responders at 3 mg/kg in data set [1] (setting [8]) stood at 0%. Besides, in data set [1], the “anti-MES protecting ability” value is on record as “showed anti-MES protecting ability”. The “Tox (rotorod), animals toxic/tested” value in “in vivo [3]” (mouse, in vivo, 3 mg/kg) was 0/4; in the data set “in vivo [3]” (mouse, in vivo, 10 mg/kg) it was 0/4. The responders at 50 mg/kg in data set [4] (setting [17]) was 100%; in data set [4] (setting [18]) it was 75%; in data set [4] (setting [19]), 75%; in data set [4] (setting [20]) it was 100%. For the same compound, in “in vivo [5]”, the “Tox, animals toxic/tested” value was 0/4. In the data set with seizures (Phase I), the minimal effective dose was below 100 mg/kg.
Take `O=C1C=C(NCCc2ccccc2)CCC1` [Compound 149]: the responders at 100 mg/kg is 100% in data set [1] (setting [27]); 0% in data set [1] (setting [28]); 0% in data set [2] (0.5 h, read-out: scMet, animals protected/tested); 0% in data set [2] (setting [29]). Besides, the responders at 300 mg/kg in data set [1] (setting [27]) was found to be 100%; in data set [1] (setting [28]), 0%; in data set [2] (setting [29]) it was 0%. For the same compound, the “Tox, animals exhibiting toxicity/tested” value in “in vivo [3]” (100 mg/kg, 30 min) is 4/8; in the data set “in vivo [3]” (100 mg/kg, 4 h) it was 0/4; in the data set “in vivo [3]” (300 mg/kg, 4 h), 1/2. Further, the responders at 50 mg/kg in data set [4] (po, 0.25 h, read-out: MES, animals protected/tested) is 100%; in data set [4] (po, 0.5 h, read-out: MES, animals protected/tested) it was 100%; in data set [4] (po, 1 h, read-out: MES, animals protected/tested), 75%; in data set [4] (po, 2 h, read-out: MES, animals protected/tested), 25%; in data set [4] (po, 4 h, read-out: MES, animals protected/tested) it was 25%. In addition, the minimal effective dose with seizures is below 100 mg/kg.
`CCOC(=O)C1C(=O)C=C(Nc2ccc(C(F)(F)F)cc2)CC1C` (centres unmarked) [Compound 131]: the responders at 10 mg/kg in data set [1] (setting [22]) was 100%; in data set [1] (setting [23]) it was 75%; in data set [1] (setting [24]), 100%; in data set [1] (setting [25]), 50%; in data set [1] (setting [26]), 50%. In addition, the responders at 100 mg/kg is 100% in data set [1] (setting [6]), 0% in data set [1] (setting [10]), 0% in data set [2] (setting [12]) and 0% in data set [2] (setting [15]). In addition, the responders at 300 mg/kg is 100% in data set [1] (setting [7]), 100% in data set [1] (setting [11]), 0% in data set [2] (setting [14]) and 0% in data set [2] (setting [16]). In data set [1], the “anti-MES protecting ability” value is on record as “showed anti-MES protecting ability”. For the same compound, the “Tox, animals toxic/tested” value in the data set “in vivo [3]” (mouse, in vivo, ip, 100 mg/kg) is given as 0/8; in “in vivo [5]” it was 0/4. For the same compound, the responders at 50 mg/kg in data set [4] (setting [17]), in data set [4] (setting [18]), in data set [4] (setting [19]) and in data set [4] (setting [20]) was 100% throughout. The minimal effective dose in the data set on seizures (Phase I) is below 100 mg/kg.
For the compound `O=C1C=C(NCCc2ccccc2)CCC1` [Compound 154], the “MES, animals protected/tested” value in data set [1] (300 mg/kg, 30 min) was 1/1; in data set [1] (300 mg/kg, 4 h) it was 0/1; in data set [1] (Phase II, 100 mg/kg, 0.25 h), 2/2; in data set [1] (Phase II, 100 mg/kg, 1.00 h), 0/2; in data set [4] (oral, 50 mg/kg, 0.25 h), 0/4; in data set [4] (oral, 50 mg/kg, 0.50 h) it was 0/4. Further, the “MES, animals protected/tested” value is reported as 0/4 in data set [4] (oral, 50 mg/kg, 1.00 h); 0/4 in data set [4] (oral, 50 mg/kg, 2.00 h); 0/4 in data set [4] (oral, 50 mg/kg, 4.00 h). Further, the “scMet, animals protected/tested” value in data set [2] (300 mg/kg, 30 min) is reported as 0/1; in data set [2] (300 mg/kg, 4 h), 0/1. In addition, in “in vivo [3]” (mouse, in vivo, 100 mg/kg), the “Tox (rotorod), animals toxic/tested” value is recorded as 0/2. The “Tox, animals toxic/tested” value in the data set “in vivo [5]” is 0/4.
For the compound `CC1(C)CC(=O)C=C(Nc2ccc(N)cc2)C1` [Compound 142], the responders at 100 mg/kg in data set [1] (0.25 h, Phase II, 100 mg/kg, 0.25 h, read-out: MES, animals protected/tested (converted)) was 50%; in data set [1] (setting [6]), 0%; in data set [1] (1 h, Phase II, 100 mg/kg, 1.00 h, read-out: MES, animals protected/tested (converted)), 50%; in data set [1] (setting [10]), 33.3%; in data set [2] (setting [12]) it was 0%; in data set [2] (setting [15]), 0%. The responders at 300 mg/kg in data set [1] (setting [7]) is 100%; in data set [1] (setting [11]) it was 100%; in data set [2] (setting [14]), 0%; in data set [2] (setting [16]), 0%. In addition, the “Tox (rotorod), animals toxic/tested” value in “in vivo [3]” (mouse, in vivo, 100 mg/kg) is on record as 0/2. Besides, the responders at 50 mg/kg in data set [4] (setting [17]) is 0%; in data set [4] (setting [18]), 0%; in data set [4] (setting [19]), 0%; in data set [4] (setting [20]), 0%; in data set [4] (setting [21]), 25%. For the same compound, in “in vivo [5]”, the “Tox, animals toxic/tested” value is on record as 0/4. Moreover, the minimal effective dose in the data set with seizures (Phase I) is below 100 mg/kg.
